Measurements as given in PubChem BioAssay AID1013 (Columbia University Molecular Screening Center, 2008).
The source made the active and inactive calls. How the calls were made is not given here.

Tests used:
[1] = tested on: TNFa-stimulated cells, VCAM1 expression imaging; test: inhibitors of TNFa-induced VCAM1 expression, confirmation, imaging, TNFa stimulus, retest and dose response (AID 1013);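 on cell count: compound on cells 1 h before TNFa then 24 h more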
[2] = as above; conditions: TNFa-stimulated cells, VCAM1 expression imaging; cell count; at 10 µM; stronger effect = lower value

| IC50 [1] | SMILES | cell count [2] |
| --- | --- | --- |
| > 10 µM (inactive) | COc1ccc(C(=O)c2c(C(F)(F)F)oc3c2C(=O)c2ccccc2C3=O)cc1 | 105% |
| > 10 µM (inactive) | Cc1ccc(NC2=C/C(=N\S(=O)(=O)c3cccs3)c3ccccc3C2=O)c(C)c1 | 104% |
| > 10 µM (inactive) | CC(C)Oc1ccccc1C1CC(=O)Nc2cc3c(cc21)OCCO3 (centres undefined) | 104% |
| > 10 µM (inactive) | O=C1c2cccc3c([N+](=O)[O-])ccc(c23)C(=O)N1c1nccs1 | 101% |
| 2.07 µM | COc1ccc(C(=O)C(CN2CCCC2)c2ccccc2)cc1 (centres undefined) | 73.4% |
| > 10 µM (inactive) | O=C(COC(=O)c1ccccc1C(=O)c1ccc(Cl)c([N+](=O)[O-])c1)NC1CCCCCC1 | 91% |
| 0.221 µM | COc1cc(C2C(C#N)=C(C)NC3=C2C(=O)c2ccccc23)cc(OC)c1OC (centres undefined) | 32% |
| > 10 µM (inactive) | COc1ccc(C(=O)c2ccc(N(C)C)cc2)c2ccccc12 | 93.2% |
| > 10 µM (inactive) | CC1=CC(C)(C)N(S(=O)(=O)c2ccc(C)cc2)c2cc(C)ccc21 | 113% |
| > 10 µM (inactive) | COc1cc(/C=C(/C#N)C(=O)NCCc2c[nH]c3ccccc23)ccc1OCc1ccccc1F | 98.2% |
| > 10 µM (inactive) | O=C1c2cccc3c([N+](=O)[O-])ccc(c23)C(=O)N1c1ccc(Cl)cn1 | 103% |
| 4.86 µM | O=S(=O)(c1ccc(Cl)cc1)c1snnc1-c1ccccc1 | 71.6% |
| > 10 µM (inactive) | CC1=C([N+](=O)[O-])C(c2ccccc2)C2=C(N1)c1ccccc1C2=O (centres undefined) | 111% |
| > 10 µM (inactive) | CCOC(=O)Nc1nc(-c2ccccc2)c(C(=O)c2ccccc2)s1 | 61.6% |
| 3.8 µM | Cc1ccc(Nc2nc(-c3c(C)nc4ccccn34)cs2)cc1 | 27.9% |
| 2.86 µM | Cc1ccc(C(=O)c2cc([N+](=O)[O-])ccc2N2CCOCC2)c(C)c1 | 41.4% |
| > 10 µM (inactive) | COCCOC(=O)c1[nH]c2c(c1C)C(=O)CC(c1ccccc1)C2 (centres undefined) | 63% |
| 1.06 µM | COc1ccc(NC(=O)/C(Cl)=C(/Cl)S(=O)Cc2ccccc2)cn1 (centres undefined) | 34.2% |
| > 10 µM (inactive) | O=c1cc(C(Cl)(Cl)Cl)oc2c1ccc1ccccc12 | 104% |
| > 10 µM (inactive) | Cn1cc(/C=N/n2cnc3scc(-c4ccc(Cl)cc4)c3c2=O)c2ccccc21 | 88.1% |
| > 10 µM (inactive) | CC1=C([N+](=O)[O-])C(c2cccc(Br)c2)C2=C(N1)c1ccccc1C2=O (centres undefined) | 68.1% |
| < 0.1 µM | CCOc1ccc(C2=Nn3c(nnc3-c3ccccc3OC)SC2)cc1 | 32.1% |
| > 10 µM (inactive) | Cc1ccc(Cl)cc1NC1=C/C(=N\S(=O)(=O)c2cccs2)c2ccccc2C1=O | 123% |
| > 10 µM (inactive) | N#CC1=C(N)Oc2c(ccc3ccccc23)C1c1cccs1 (centres undefined) | 69.2% |
| > 10 µM (inactive) | CCOc1cc(/C=N\NC(=O)Cc2ccccc2)ccc1OCC(=O)Nc1ccc(C)c(C)c1 | 110% |
| 0.415 µM | CSc1nc(N(C)NC(=O)c2cccc(C)c2)c2ccccc2n1 | 39.5% |

The next lines start with the compound.

| SMILES | IC50 [1] | cell count [2] |
| --- | --- | --- |
| NC(=S)N/N=C/c1ccc(-c2ccc(Cl)c(Cl)c2)o1 | > 10 µM (inactive) | 93.5% |
| COc1ccc(OC)c(C2C3=C(COC3=O)Nc3cc4c(cc32)OCO4)c1 (centres undefined) | > 10 µM (inactive) | 112% |
| CCOC(=O)c1[nH]c(C)c(C(=O)N2CCc3ccccc32)c1C | 0.778 µM | 61.8% |
| COc1ccc(NC(=O)/C(Cl)=C(/Cl)S(=O)Cc2ccc(C)cc2)cn1 (centres undefined) | 2.19 µM | 55% |
| CCCOc1ccccc1C1CC(=O)Nc2cc3c(cc21)OCCO3 (centres undefined) | > 10 µM (inactive) | 113% |
| COc1cc2c(O)c3c(c(-c4ccc5c(c4)OCO5)c2cc1OC)C(=O)OC3 | 3.24 µM | 86.8% |
| Cc1cc(NC(=O)CSc2nc3ccccc3c(=O)n2C2CCCC2)no1 | > 10 µM (inactive) | 111% |
| COc1ccc(N=c2oc3ccc(OC)cc3cc2-c2nc3ccccc3[nH]2)cc1 | > 10 µM (inactive) | 110% |
| Cc1cc(C)c(/C=N/NC(N)=O)c(C)c1/C=N/NC(N)=O | 0.517 µM | 71.9% |
| Cc1cc(NC(=O)CSc2nc(-c3ccco3)cc(C(F)(F)F)n2)no1 | > 10 µM (inactive) | 94.3% |
| CCCCCc1ccc(-c2ccc(=O)[nH]n2)cc1 | 2.49 µM | 91% |
| O=C(CS(=O)c1ccc(C(F)(F)F)cc1[N+](=O)[O-])Oc1ccc(Cl)cc1 (centres undefined) | > 10 µM (inactive) | 111% |
| Cc1ccc(-c2nc(NC(=O)c3nn(C)cc3[N+](=O)[O-])sc2C)cc1C | > 10 µM (inactive) | 94.9% |
| CCSc1nc2ccccc2n1C(=O)/C=C\c1ccc(OC)c(OC)c1 | > 10 µM (inactive) | 98.3% |
| O=C(c1ccc([N+](=O)[O-])cc1)N(Cc1ccc(Cl)cc1)N1C(=O)CCCC1=O | > 10 µM (inactive) | 91.5% |
| CC1CC(=O)NN=C1c1ccc(NCCO)c([N+](=O)[O-])c1 (centres undefined) | 0.051 µM | 71.6% |

| SMILES | IC50 [1] | cell count [2] |
| --- | --- | --- |
| CCCOC(=O)c1[nH]c2c(c1C)C(=O)CC(c1cccs1)C2 (centres undefined) | > 10 µM (inactive) | 89% |
| Cc1ccc2nc(SCC(=O)Nc3cc(C(F)(F)F)ccc3N3CCOCC3)[nH]c2c1 | > 10 µM (inactive) | 105% |
| COc1ccc(-n2nnnc2S(=O)(=O)CC(=O)N2CCCCC2)cc1 | 3.02 µM | 4.64% |
| CCC(C)[C@@H](NC(=O)OC(C)(C)C)c1nnc(S(=O)(=O)Cc2cccc(C)c2)o1 (some centres undefined) | > 10 µM (inactive) | 95.6% |
| COc1ccc(CS(=O)(=O)/C(Cl)=C(/Cl)C(=O)Nc2ccc(OC)nc2)cc1 | 2 µM | 2.22% |
| CCC(=O)Nc1nc(-c2ccccc2)ns1 | > 10 µM (inactive) | 115% |
| CCc1ccc2oc(-c3cc(N)ccc3O)nc2c1 | > 10 µM (inactive) | 97.7% |
| O=C(OCn1ncc(Br)c(Br)c1=O)c1ccc(F)cc1 | 2.86 µM | 2.02% |
| NC(=S)N/N=C\c1ccc(-c2cccc(Cl)c2Cl)o1 | > 10 µM (inactive) | 106% |
| Cc1cccc(OCC(=O)Nc2cc(C)ccc2O)c1 | 0.452 µM | 91.2% |
| CCCOc1ccc(C(=O)C(CN2CCOCC2)c2ccccc2)cc1 (centres undefined) | 5.2 µM | 79.7% |
| CCCC1=Nc2cc(C(=O)NCCCOCC)ccc2Sc2ccccc21 | 1.01 µM | 31.7% |
| CCOC(=O)c1[nH]c(C)c(C(=O)c2ccc(C)cc2)c1C | > 10 µM (inactive) | 85.6% |
| C/C(=N\O)c1ccc2c3ccccc3n(C)c2c1 | > 10 µM (inactive) | 89% |
| Cc1c(C(=O)OCC(C)C)[nH]c2c1C(=O)CC(c1ccco1)C2 (centres undefined) | > 10 µM (inactive) | 48.4% |
